pIC50: −log10 of the molar value. In brackets after ≈: the same amount, converted by molar mass. Activity calls are given as the source filed them. No cut-off for these calls is given here.
Assays:
Micrococcus luteus = test: Antibacterial activity against Micrococcus luteus IFO 12708 after 24 hrs; assay type: functional; settings: IFO 12708, 24 h
Salmonella typhimurium = test: Antibacterial activity against Salmonella Typhimurium ATCC 14028 after 24 hrs; assay type: functional, Salmonella enterica subsp. enterica serovar Typhimurium; settings: Salmonella enterica, ATCC 14028, 24 h
Proteus vulgaris = test: Antibacterial activity against Proteus vulgaris ATCC 3851 after 24 hrs; assay type: functional; settings: ATCC 3851, 24 h
Bacillus subtilis = test: Antibacterial activity against Bacillus subtilis ATCC 6633 after 24 hrs; assay type: functional; settings: ATCC 6633, 24 h
Staphylococcus aureus = test: Antibacterial activity against Staphylococcus aureus ATCC 6538p after 24 hrs; assay type: functional
Escherichia coli = test: Antibacterial activity against Escherichia coli ATCC 35270 after 24 hrs; assay type: functional; settings: ATCC 35270, 24 h
K562 = test: Anticancer activity against human K562 cells; assay type: functional, cell-based
[1] = tested on: Radical scavenging activity; test: Antioxidant activity assessed as DPPH radical-scavenging activity after 30 mins by spectrophotometric analysis; assay type: functional
HaCaT = test: Antioxidant activity in human HaCaT cells assessed as inhibition of H2O2-induced cell death pretreated for 1 hr prior to H2O2 challenge measured after 24 hrs by spectrophotometric analysis; assay type: functional, cell-based

MIC (Micrococcus luteus): 50 µg/mL (≈ 198 µM)
MIC (Salmonella typhimurium): 50 µg/mL (≈ 198 µM)
MIC (Proteus vulgaris): 12.5 µg/mL (≈ 49.6 µM)
MIC (Bacillus subtilis): > 100 µg/mL
MIC (Staphylococcus aureus): > 100 µg/mL
MIC (Escherichia coli): > 100 µg/mL
pIC50 [1]: 2.68
Structure (SMILES): CC1=C[C@@H]2C[C@]3(C)OC(=O)[C@@](O)([C@H]3C)[C@]2(O)C1=O (relative stereo)
Activity (K562): inactive
Activity [1]: Dose-dependent effect
inhibition (HaCaT): Dose-dependent effect
